US7253177B2, “Synthesis and antimalarial activity of pyrrolo[3,2-f]quinazoline-1,3-diamine derivatives” (United States of America as Represented by the Secretary of …, priority 2004, dated 2007)
Read-outs that look alike come from different tables or passages of the source.

Experiments:
[1] = test system: Plasmodium berghei (KBG-173 strain); format: in vivo; conditions: for # Mice Alive Day 30/Total / # Mice Dead/Day Died: oral
Description: B. Antimalarial Activities: (a). In Vitro Antimalarial Studies. The in vitro assays were conducted by using a modification of the semiautomated microdilution technique of Desjardins et al and Chulay et al.. Four P. falciparum malaria parasite clones, from CDC Indochina III (W-2), CDC Sierra Leone I (D-6), Southeast Asia Isolates (TM91C235) and RCS (Isolates from Brazil) were utilized in susceptibility testing. They were derived by direct visualization and micromanipulation from patient isolates. The W-2 clone is susceptible to mefloquine but resistant to chloroquine, sulfadoxine, pyrimethamine, and quinine, whereas the D-6 clone is naturally resistant to mefloquine but susceptible to chloroquine, sulfadoxine, pyrimethamine and quinine. Test compounds were initially dissolved in DMSO and diluted 400 fold in RPMI 1640 culture medium supplemented with 25 mM Hepes, 32 mM NaHCO3 and 10% Albumax I (Gibco BRL, Grand Island, N.Y.). These solutions were subsequently serially diluted two-fold with a Biomek 1000 (Beckman, Fullerton, Calif.) over 11 different concentrations. The parasites were exposed to serial dilutions of each compound for 48 hrs and incubated at 37° C. with 5% O2, 5% CO2 and 90% N2 prior to the addition of [^3H]hypoxanthine. After a further incubation of 18 hrs, parasite DNA was harvested from each microtiter well using Packard Filtermate 196 Harvester (Meriden, Conn.) onto glass filters. Uptake of [^3H]hypoxanthine was measured with a Packard Topcount Scintillation. Concentration-response data were analyzed by a non-linear regression logistic dose response model and the IC50 values (50% inhibitory concentrations) for each compound were calculated. (Table 3). (b). In Vivo Antimalarial Studies against P. berghei in mice: The in vivo efficacy of the artelinic acid analogs were determined in a modified Thompson test. This test measures the survivability of mice and parasitemia clearance following administration of drug on days 3-5 post infection. In brief, 5×10^6 P. berghei-infected erythrocytes (KBG-173 strain) were inoculated intraperitoneally to female mice that weighed 24-30 g. By day three post-infection, parasitemia ranged from 1.0-3.7%. Each drug, dissolved in 5% sodium bicarbonate, was administered PO twice daily from day 3-5 post-infection. Total doses for each drug ranged from 1.5-384 mg/kg with 8 mice included in each dosage group. The percent suppression of parasitemia in the treated mice compared to the untreated controls was determined for each test compound; the SD-50 (fifty percent suppression dose) and SD-90 were determined from a non-linear regression logistic dose response fit at day 6 parasitemia data. Survival of mice to day 60 post-infection was considered a cure (C). Compounds were considered active (A) when the survival time of the treated mice was greater than twice the control mice, i.e., 12-14 day (Table 4-5). (c). Sporozoite Induced Test Each compound is ground with a mortar & pestle and suspended in 0.5% hydroxyethylcellulose—0.1% Tween 80 for compounds to be administered PO and those given SC are suspended in peanut oil. Each compound is prepared at 3 different dose levels as requested by WRAIR. Compounds are administered either PO or SC to mice once 4 hr before inoculation of sporozoites. Four-week-old male CD-1 mice, purchased from Charles River and weighing 16-17 g, are placed 5 per cage and allowed to acclimate for 4 days before being treated and then inoculated with sporozoites. They are fed food and water ad-lib and maintained at 76° F. with 12 hr light and 12 hr darkness. The cages and water bottles are changed biweekly. The mice are weighed on Days 0, 3 and 6 then biweekly when blood films are taken. Plasmodium yoelii (17×) is used to infect mice that will be used to infect the mosquitoes. Mice are given a single dose of test compound 4 hr before being inoculated intraperitoneally with 2.5×10^5 sporozoites of Plasmodium yoelii on Day 0. […]

P. falciparum FVO = test: Antimalarial activity against P. falciparum in Aotus monkey; format: in vivo, Plasmodium falciparum; conditions: 1 mg/kg once a day x three days, cured = parasitemia free for 100 days post treatment
Description: (e). Toxicity Study in Aotus monkey: Protocol: Two malaria double cured Aotus weighing 1027-695 grams respectively received single dose of 3 mg/kg orally of the two compounds 2b and 3e. The monkeys were weighed and pre-bleed for CBC and Chemistry (ALT, BUN, Creatinine) determination, and again three, seven and 15 days post treatment. Signs of toxicity such as anorexia, vomiting, diarrhea or behavior changes were recorded. […] (f). Antimalarial Activity against P. falciparum in Aotus monkey: Protocol: Six (6) malaria naive Aotus lemurinus lemurinus (weigh 787-978 grms) were divided into two groups of two Aotus each plus two controls (MN13177 male and MN 13153 male) and infected with 5×10^6 P. falciparum FVO malaria parasites with 1 ml of an appropriate dilution in RPMI media intravenously on the saphenous vein. When their parasitemia reached 5×10^4 parasites/ul, treatment was started. Giemsa-stained thick blood smears were prepared daily with a prick in the ear marginal vein and parasites enumerated by the Earle and Perez method. Group 1 Aotus received 3e at 1 mg/kg once a day×three days. Group 2 Aotus received 2b at 1 mg/kg once a day×three days. The monkeys were weight and pre-bled for CBC and Chemistry (ALT, BUN, Creatinine) determination, and on day 4 post-treatmetne (PT). Bleedings for Pk determinations were carried out on day 1 PT at time 0, 1 hr, 7:30 hr and 24 hr PT. […]

SMILES | # Mice Alive Day 30/Total ([1]; 1.25 mg/kg/day) | # Mice Alive Day 30/Total ([1]; 80-2.5 mg/kg/day) | # Mice Dead/Day Died ([1]; 80-2.5 mg/kg/day) | # Monkey Cured/# Monkey Used, P. falciparum (P. falciparum FVO) | drug-related deaths in mice ([1]; in vivo) | # Mice Alive Day 30/Total ([1]; 220-0.625 mg/kg/day) | # Mice Dead/Day Died ([1]; 220-0.625 mg/kg/day)
CCOC(=O)Nc1nc(NC(=O)OCC)c2c(ccc3c2ccn3Cc2ccccc2C(F)(F)F)n1 [Compound 2b] | 3/5 | 5/5 | None | 2/2 |  |  | 
CC(=O)N(C(C)=O)c1nc(N(C(C)=O)C(C)=O)c2c(ccc3c2ccn3Cc2ccccc2C(F)(F)F)n1 [Compound 3e, 1,3-Bis(diacetylamino)-7-(2-trifluoromethyl)benzyl-7H-pyrrolo[3,2-f]quinazoline] |  |  |  | 2/2 | no drug-related deaths | 5/5 | None
